Measurements as given in ChEMBL document CHEMBL4421728, “Bach1 Inhibitors in Combination with Nrf2 Activators and Pharmaceutical Compositions Thereof” (2017).

Assays:
[1] = molecular target: T1, Transcription regulator protein BACH1 (Homo sapiens) (UniProt O14867); experiment: Inhibition of Bach1 in normal human lung fibroblasts assessed as induction of HMOX protein expression at 0.019 uM in presence of 0.3 uM Nrf2 activator DMF incubated for 16 to 18 hrs by immunostaining relative to control
T1 sequence (whole entry): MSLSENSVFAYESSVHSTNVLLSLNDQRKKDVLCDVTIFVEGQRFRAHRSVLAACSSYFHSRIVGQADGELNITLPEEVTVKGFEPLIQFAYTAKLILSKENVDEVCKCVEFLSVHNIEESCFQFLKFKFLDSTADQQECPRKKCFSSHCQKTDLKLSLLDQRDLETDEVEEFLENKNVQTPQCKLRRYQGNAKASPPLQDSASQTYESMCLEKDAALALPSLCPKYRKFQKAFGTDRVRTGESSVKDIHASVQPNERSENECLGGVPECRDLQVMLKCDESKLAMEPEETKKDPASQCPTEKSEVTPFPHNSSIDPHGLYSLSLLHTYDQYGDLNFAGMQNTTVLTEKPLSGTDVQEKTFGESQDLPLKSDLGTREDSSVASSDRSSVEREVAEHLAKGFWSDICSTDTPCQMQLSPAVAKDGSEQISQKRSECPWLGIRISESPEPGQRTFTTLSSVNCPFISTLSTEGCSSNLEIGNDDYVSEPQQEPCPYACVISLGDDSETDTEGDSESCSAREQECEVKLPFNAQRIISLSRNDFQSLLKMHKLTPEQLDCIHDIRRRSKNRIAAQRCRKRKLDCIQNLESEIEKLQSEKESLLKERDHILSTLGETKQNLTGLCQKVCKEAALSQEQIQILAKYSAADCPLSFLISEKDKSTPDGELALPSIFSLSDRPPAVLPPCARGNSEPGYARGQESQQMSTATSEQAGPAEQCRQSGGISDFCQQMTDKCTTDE

[2] = molecular target: T1, Transcription regulator protein BACH1 (Homo sapiens); experiment: Inhibition of Bach1 in normal human lung fibroblasts assessed as induction of HMOX protein expression by measuring HMOX positive cells level at 0.019 uM incubated for 16 to 18 hrs by immunostaining relative to control DMSO; set-up: scale not given: the % may be the effect or the level left
[3] = molecular target: T1, Transcription regulator protein BACH1 (Homo sapiens); experiment: Inhibition of Bach1 in normal human lung fibroblasts assessed as induction of HMOX protein expression at 0.078 uM in presence of 3 uM Nrf2 activator DMF incubated for 16 to 18 hrs by immunostaining relative to control
[4] = molecular target: T1, Transcription regulator protein BACH1 (Homo sapiens); experiment: Inhibition of Bach1 in normal human lung fibroblasts assessed as induction of HMOX protein expression by measuring HMOX positive cells level at 0.156 uM in presence of 10 uM Nrf2 activator DMF incubated for 16 to 18 hrs by immunostaining relative to control DMSO; set-up: scale not given: the % may be the effect or the level left
[5] = molecular target: T1, Transcription regulator protein BACH1 (Homo sapiens); experiment: Inhibition of Bach1 in normal human lung fibroblasts assessed as induction of HMOX protein expression at 0.078 uM in presence of 30 uM Nrf2 activator DMF incubated for 16 to 18 hrs by immunostaining relative to control
[6] = molecular target: T1, Transcription regulator protein BACH1 (Homo sapiens); experiment: Inhibition of Bach1 in normal human lung fibroblasts assessed as induction of HMOX protein expression at 2.5 uM incubated for 16 to 18 hrs in presence of 0.039 uM Nrf2 activator Bardoxolone methyl by immunostaining relative to control
[7] = molecular target: T1, Transcription regulator protein BACH1 (Homo sapiens); experiment: Inhibition of Bach1 in normal human lung fibroblasts assessed as induction of HMOX protein expression at 2.5 uM incubated for 16 to 18 hrs in presence of 0.019 uM Nrf2 activator Bardoxolone methyl by immunostaining relative to control
[8] = molecular target: T1, Transcription regulator protein BACH1 (Homo sapiens); experiment: Inhibition of Bach1 in normal human lung fibroblasts assessed as induction of HMOX protein expression at 0.312 uM incubated for 16 to 18 hrs in presence of 0.078 uM Nrf2 activator Bardoxolone methyl by immunostaining relative to control
[9] = molecular target: T1, Transcription regulator protein BACH1 (Homo sapiens); experiment: Inhibition of Bach1 in normal human lung fibroblasts assessed as induction of HMOX protein expression at 2.5 uM incubated for 16 to 18 hrs in presence of 0.078 uM Nrf2 activator Bardoxolone methyl by immunostaining relative to control
[10] = molecular target: T1, Transcription regulator protein BACH1 (Homo sapiens); experiment: Inhibition of Bach1 in normal human lung fibroblasts assessed as induction of HMOX protein expression at 0.078 uM incubated for 16 to 18 hrs in presence of 0.0097 uM Nrf2 activator Bardoxolone methyl by immunostaining relative to control
[11] = molecular target: T1, Transcription regulator protein BACH1 (Homo sapiens); experiment: Inhibition of Bach1 in normal human lung fibroblasts assessed as induction of HMOX protein expression at 0.039 uM incubated for 16 to 18 hrs in presence of 0.078 uM Nrf2 activator Bardoxolone methyl by immunostaining relative to control
[12] = molecular target: T1, Transcription regulator protein BACH1 (Homo sapiens); experiment: Inhibition of Bach1 in normal human lung fibroblasts assessed as induction of HMOX protein expression at 1.25 uM incubated for 16 to 18 hrs in presence of 0.156 uM Nrf2 activator Bardoxolone methyl by immunostaining relative to control
[13] = molecular target: T1, Transcription regulator protein BACH1 (Homo sapiens); experiment: Inhibition of Bach1 in normal human lung fibroblasts assessed as induction of HMOX protein expression at 1.25 uM incubated for 16 to 18 hrs in presence of 0.078 uM Nrf2 activator Bardoxolone methyl by immunostaining relative to control
[14] = molecular target: T1, Transcription regulator protein BACH1 (Homo sapiens); experiment: Inhibition of Bach1 in normal human lung fibroblasts assessed as induction of HMOX protein expression at 0.312 uM incubated for 16 to 18 hrs in presence of 0.039 uM Nrf2 activator Bardoxolone methyl by immunostaining relative to control
[15] = molecular target: T1, Transcription regulator protein BACH1 (Homo sapiens); experiment: Inhibition of Bach1 in normal human lung fibroblasts assessed as induction of HMOX protein expression at 0.019 uM incubated for 16 to 18 hrs in presence of 0.0024 uM Nrf2 activator Bardoxolone methyl by immunostaining relative to control
[16] = molecular target: T1, Transcription regulator protein BACH1 (Homo sapiens); experiment: Inhibition of Bach1 in normal human lung fibroblasts assessed as induction of HMOX protein expression at 1.25 uM incubated for 16 to 18 hrs in presence of 0.0097 uM Nrf2 activator Bardoxolone methyl by immunostaining relative to control
[17] = molecular target: T1, Transcription regulator protein BACH1 (Homo sapiens); experiment: Inhibition of Bach1 in normal human lung fibroblasts assessed as induction of HMOX protein expression at 0.019 uM incubated for 16 to 18 hrs in presence of 0.039 uM Nrf2 activator Bardoxolone methyl by immunostaining relative to control
[18] = molecular target: T1, Transcription regulator protein BACH1 (Homo sapiens); experiment: Inhibition of Bach1 in normal human lung fibroblasts assessed as induction of HMOX protein expression at 0.156 uM incubated for 16 to 18 hrs in presence of 0.0024 uM Nrf2 activator Bardoxolone methyl by immunostaining relative to control
[19] = molecular target: T1, Transcription regulator protein BACH1 (Homo sapiens); experiment: Inhibition of Bach1 in normal human lung fibroblasts assessed as induction of HMOX protein expression at 2.5 uM incubated for 16 to 18 hrs in presence of 0.0024 uM Nrf2 activator Bardoxolone methyl by immunostaining relative to control
[20] = molecular target: T1, Transcription regulator protein BACH1 (Homo sapiens); experiment: Inhibition of Bach1 in normal human lung fibroblasts assessed as induction of HMOX protein expression at 0.039 uM incubated for 16 to 18 hrs in presence of 0.0097 uM Nrf2 activator Bardoxolone methyl by immunostaining relative to control

fold change (FC) [1]	Activity [2]	fold change (FC) [3]	Activity [4]	fold change (FC) [5]	fold change (FC) [6]	fold change (FC) [7]	fold change (FC) [8]	fold change (FC) [9]	fold change (FC) [10]	fold change (FC) [11]	fold change (FC) [12]	fold change (FC) [13]	fold change (FC) [14]	fold change (FC) [15]	fold change (FC) [16]	fold change (FC) [17]	fold change (FC) [18]	fold change (FC) [19]	fold change (FC) [20]	Structure (SMILES)
1.24	3.6%	4.33	100%	6.18	–	–	–	–	–	–	–	–	–	–	–	–	–	–	–	CN(C)C(=O)CNC(=O)c1ccc2c(c1)nc(Nc1nc3ccc(C(F)(F)F)cc3s1)n2C
–	–	–	–	–	14.7	17	21.1	14.3	8.43	18.7	16.6	15.2	19.6	3.24	16.5	15.9	7.32	18.8	5.31	CNC(=O)c1ccc2c(c1)nc(Nc1nc3ccc(OC(F)(F)F)cc3s1)n2C
1.44	19.4%	4.2	100%	4.8	–	–	–	–	–	–	–	–	–	–	–	–	–	–	–	Cn1c(Nc2nc3ccc(C(F)(F)F)cc3s2)nc2cc(C(=O)NCCOCCO)ccc21
1.43	2.31%	3.12	99.7%	4.52	–	–	–	–	–	–	–	–	–	–	–	–	–	–	–	COCCNC(=O)c1cnc2c(c1)nc(Nc1nc3ccc(OC(F)(F)F)cc3s1)n2C
